These results are taken from patent US20100222421A1, “Usage of Baicalein in the Preparation of a Pharmaceutical Composition for the Treatment of Traumatic Brain Injury” (National Defense Medical Center, priority 2009, published 2010).

Format in all cases: in vivo, rat
The subject of test [1] is rats with controlled cortical impact (CCI) injury. The test can be described thus: Tactile adhesive-removal somatosensory test after CCI injury. The note with it: P<0.05; for adhesive-removal times versus vehicle-treated rats: days 1, 4 and 7. As to the method: A previously described CCI injury procedure was utilized (Chen et al., 2003). Male Sprague-Dawley rats, which have body weight of 250-300 g, were anaesthetized with sodium pentobarbital (i.p.; 50 mgkg^−1; Rhone Merieux, Harlow, UK) and placed in a stereotaxic frame. A 5-mm craniotomy was performed over the left parietal cortex, centered on the coronal suture and 3 mm lateral to the sagittal suture. Considerable care was taken to avoid injury to the underlying dura. Injury was made using a pneumatic piston with a rounded metal tip (2.5 mm diameter) that was angled 22.5° C. to the vertical so that the tip was perpendicular with the brain surface at the centre of the craniotomy. A velocity of 4 ms^−1 and a deformation depth 2 mm below the dura were used. The bone flap was immediately replaced and sealed, and the scalp was closed with sutures. Body temperature was monitored throughout the surgery by a rectal probe; temperature was maintained at 37.0±0.5° C. using a heated pad. Rats were placed in a heated cage to maintain body temperature, while recovering from anaesthesia. Baicalein (30 mg kg^−1) dissolved in 10% dimethyl sulphoxide (0.25-0.3 mL) or a corresponding volume of vehicle (10% dimethyl sulphoxide) was administered i.p. immediately following injury or daily for 4 days (immediately, 25, 49 and 73 h) after injury. Behaviour testing using the rotarod, tactile adhesive removal, mNSS and beam walk tests was performed at 28 hours as well as 4, 7, 14, 21 and 28 days post-injury. At 14 and 28 days, the animals were killed, perfused intravascularly and their brains were processed with cresyl violet staining to assess contusion volume (n=8 for each group). […] Behaviour testing was performed before CCI and at […] after CCI by an observer who was unaware of the experimental treatments. […] The time required for each rat to remove adhesive from the forelimb was recorded for five trials per day. […] One hour before CCI, mean latency (in seconds) over five trials to remove the contralateral (right) adhesive was recorded as the pre-injury baseline value.

The test system of the next test is IL-6 mRNA. Description: Real-time quantitative RT-PCR, IL-6 mRNA after CCI injury. Conditions: single-dose 30 mg kg^-1 i.p.; ipsilateral cortex, 6 h after injury; P<0.05. On the procedure:
A previously described CCI injury procedure was utilized (Chen et al., 2003). Male Sprague-Dawley rats, which have body weight of 250-300 g, were anaesthetized with sodium pentobarbital (i.p.; 50 mgkg^−1; Rhone Merieux, Harlow, UK) and placed in a stereotaxic frame. A 5-mm craniotomy was performed over the left parietal cortex, centered on the coronal suture and 3 mm lateral to the sagittal suture. Considerable care was taken to avoid injury to the underlying dura. Injury was made using a pneumatic piston with a rounded metal tip (2.5 mm diameter) that was angled 22.5° C. to the vertical so that the tip was perpendicular with the brain surface at the centre of the craniotomy. A velocity of 4 ms^−1 and a deformation depth 2 mm below the dura were used. […] Body temperature was monitored throughout the surgery by a rectal probe; temperature was maintained at 37.0±0.5° C. using a heated pad. […] Testing after injury was as follows: (1) real-time quantitative RT-PCR analysis for TNF-α, IL-1β and IL-6 mRNA expression at 6 h post-injury (n=7 for each group); (2) FluoroJade B (FJB) staining, TNF-α, IL-1β and IL-6 immunohistochemistry, as well as ELISA at 24 h post-injury to assess degenerative neurons and to determine cytokine expression (n=7 for each group). […] Approximately 50 mg tissue was collected from the ipsilateral (injured) hemisphere and processed for real-time quantitative RT-PCR. […]

For test [2], the system named is rats with controlled cortical impact (CCI) injury. The test can be described thus: Pilot dose-selection studies, behavioural deficits. Conditions: 10 and 30 mg kg^-1 tested, result for 30 mg kg^-1 (unpublished observations). On the procedure: Baicalein (30 mg kg^−1) dissolved in 10% dimethyl sulphoxide (0.25-0.3 mL) or a corresponding volume of vehicle (10% dimethyl sulphoxide) was administered i.p. immediately following injury or daily for 4 days (immediately, 25, 49 and 73 h) after injury. Behaviour testing using the rotarod, tactile adhesive removal, mNSS and beam walk tests was performed at 28 hours as well as 4, 7, 14, 21 and 28 days post-injury. At 14 and 28 days, the animals were killed, perfused intravascularly and their brains were processed with cresyl violet staining to assess contusion volume (n=8 for each group).

As for `O=c1cc(-c2ccccc2)oc2cc(O)c(O)c(O)c12` [baicalein], the “adhesive-removal times, multiple doses versus single dose” value in test [1] (30 mg kg^-1 i.p., only on day 7 after injury) was “significantly lower”. Also, the “adhesive-removal times versus vehicle-treated rats” value in test [1] (multiple-dose 30 mg kg^-1 i.p. daily for 4 days) and in test [1] (single-dose 30 mg kg^-1 i.p.) was “significantly lower” throughout. For the same molecule, the “IL-6 mRNA level, % of level in vehicle-treated injured rats” value in the test on IL-6 mRNA was found to be 43.6%. For the same molecule, the “neuroprotective effects in improving behavioural deficits” value in test [2] is reported as “found to have neuroprotetcive effects”.
